# Laboratory results reported in patent US20140023611A1 (priority 2010, published 2014).
# Marks after values point to notes of the source that are not given here.
# Key:
# [1] = test system: uptake of phosphate from the intestine; assay: In vivo assay: bolus phosphorus (phosphate) challenge; design: species or system Sprague-Dawley rats; conditions: Structure (V) examples, Table 4, rat; for Serum increase [Pi] mg/dL from baseline low PI state: mean ± SD
# Procedure: (§1) By pretreating animals with a low phosphorus diet followed by the subsequent dosing of a phosphorus bolus, serum phosphorus levels were monitored after 30 minutes as a surrogate for intestinal phosphorus absorption. […] The in vivo bolus phosphorus challenge model used here mimics this model in rats.
# Male, 7-week-old Sprague-Dawley rats (Charles-River laboratories international, Hollister, Calif.) were allowed to acclimatize for a minimum of 3 days before switching to a synthetic low-phosphorus diet (TD.85010, Harlan Teklad, Madison, Wis.) which contains 0.1% phosphorus and 0.6% calcium. At day 5, testing compounds or vehicle alone (as indicated) were orally administered at the indicated dose in a volume of 5 ml/kg, followed by a bolus gavage of monobasic sodium phosphate (1 mmol in 1 ml) 15 min after compound dosing. Serum was collected via retroorbital bleeding 30 min post phosphate bolus and phosphate levels were determined utilizing an ACE ALERA blood chemistry analyzer (Alfa Wassermann Diagnostic Technologies, West Caldwell, N.J.). […]
# Male, 7-week-old Sprague-Dawley rats (Charles-River laboratories international, Hollister, Calif.) were allowed to acclimate for a minimum of 3 days before switching to a synthetic low-phosphorus diet (TD.85010, Harlan Teklad, Madison, Wis.) which contains 0.1% phosphorus and 0.6% calcium. At day 5, testing compounds or vehicle alone (as indicated) were orally administered at the indicated dose in a volume of 5 ml/kg, followed by a bolus gavage of monobasic sodium phosphate (1 mmol in 1 ml) 15 min after compound dosing. Serum was collected via retroorbital bleeding 30 min post phosphate bolus and phosphate levels were determined utilizing an ACE ALERA blood chemistry analyzer (Alfa Wassermann Diagnostic Technologies, West Caldwell, N.J.).
# Serum was collected 30 minutes after gavage, and phosphate levels measured. […] The in vivo bolus phosphate challenge model used here mimics this model in rats.
# Male, 7-week-old Sprague-Dawley rats (Charles-River laboratories international, Hollister, Calif.) were allowed to acclimatize for a minimum of 3 days before switching to a low-phosphorus diet (TD.85010, Harlan Teklad, Madison, Wis.) which contains 0.1% phosphorus and 0.6% calcium. At day 5, testing compounds or vehicle alone (as indicated) were orally administered at the indicated dose in a volume of 5 ml/kg, followed by a bolus gavage of monobasic sodium phosphate (1 mmol in 1 ml) 15 min after compound dosing. Serum was collected via retroorbital bleeding 30 min post phosphate bolus and serum phosphate levels were determined utilizing an ACE ALERA blood chemistry analyzer (Alfa Wassermann Diagnostic Technologies, West Caldwell, N.J.).
# The representative data on effects of test compounds on serum phosphate levels are shown in Table 4 (data are expressed as mean±SD, with 6 animals per data point). The differences between groups were evaluated by one-way analysis of variance with Dunnett's post hoc tests.
# [2] = Stability of compounds in simulated gastric and intestinal fluid; format: in vitro ADME; conditions: Structure (V) examples, Table 3, 3 hr; for % remaining, SGF: simulated gastric fluid; for % remaining, SIF: simulated intestinal fluid
# Procedure: Test compounds were incubated at 1-20 μM in simulated gastric fluid (SGF; standard USP solution with 3 mg/mL pepsin) or simulated intestinal fluid (SIF; standard USP solution with 3 mg/mL pancreatin) for 3 hr or 6 hr. HPLC-UV or HPLC-MS were used to determine test compound levels using peak area %. Results (Table 5) were reported as the percentage of test compound remaining after incubation in a given condition relative to test compound present at t=0 in the same condition.
# Test compounds were incubated at 1-20 μM in simulated gastric fluid (SGF; standard USP solution with 3 mg/mL pepsin) or simulated intestinal fluid (SIF; standard USP solution with 3 mg/mL pancreatin) for 3 hr. HPLC-UV or HPLC-MS were used to determine test compound levels using peak area %. Results (Table 3) were reported as the percentage of test compound remaining after incubation in a given condition relative to test compound present at t=0 in the same condition.
# NaPi2b = assay: Competition with phosphate: Pi uptake assay repeated at 2.1 vs 0.1 mM phosphate; format: cell-based; conditions: potency at 2.1 vs 0.1 mM phosphate
# Source text: For example, a phosphate uptake assay can be performed and the IC50 values for a compound at different phosphate concentrations can be determined (e.g., “Enzyme kinetics”, I. Segel, 1975, John-Wiley & Sons, p. 123). IC50 values for non-competitive inhibitors will remain the same or similar with respect to the phosphate concentration, whereas IC50 values for competitive inhibitors will increase (i.e lose potency) as phosphate concentration increases.
# To ascertain if an inhibitor was competitive for binding with phosphate, the procedure was repeated, but raising the concentration of the substrate in the assay mixture from 0.1 to 2.1 mM phosphate.
# [3] = test system: Uptake of Phosphorus from the Intestine; assay: In vivo bolus phosphorus challenge; design: species or system rat; conditions: Sprague-Dawley rats on low-phosphorus diet; oral Drug Dose 30, 15 min before phosphate bolus; serum 30 min post bolus
# Procedure: as §1
# Male, 7-week-old Sprague-Dawley rats (Charles-River laboratories international, Hollister, Calif.) were allowed to acclimatize for a minimum of 3 days before switching to a synthetic low-phosphorus diet (TD.85010, Harlan Teklad, Madison, Wis.) which contains 0.1% phosphorus and 0.6% calcium. At day 5, testing compounds or vehicle alone (as indicated) were orally administered at the indicated dose in a volume of 5 ml/kg, followed by a bolus gavage of monobasic sodium phosphate (1 mmol in 1 ml) 15 min after compound dosing. Serum was collected via retroorbital bleeding 30 min post phosphate bolus and phosphate levels were determined utilizing an ACE ALERA blood chemistry analyzer (Alfa Wassermann Diagnostic Technologies, West Caldwell, N.J.).
# The extent of inhibition by test compounds on the elevation of serum phosphate levels in response to the bolus of phosphorus is shown in Table 12 (data are expressed as % Inhibition, with 6-10 animals per data point). The differences between groups were evaluated by one-way analysis of variance with Dunnett's post hoc tests.
# [4] = test system: 5/6 nephrectomy (5/6Nx) rat model of CKD; assay: In vivo evaluation procedure: CKD rats, drug in chow; conditions: for FGF23 (serum FGF23 levels): ELISA
# Procedure: To assess the ability of selected example compounds to impact the progression of chronic kidney disease (CKD), 5/6 nephrectomy (5/6Nx) rat model of CKD was used. […] Upon arrival, the surgeries and extent of kidney damage in the animals were assessed by measuring serum creatinine, P, Ca, and BUN. Based on this analysis, rats with inconsistent kidney function were removed from the study and the remainder of the cohort was divided in to evenly stratified test groups. The remaining animals were then placed on the same synthetic diet used in the drug-in-chow studies (Example 350), except the P levels were adjusted to 0.9% P. Drugs are blended into this chow to achieve the required dosing rate. At this time, rats were also started on an activated Vitamin D regimen in which they were injected intraperitoneally with calcitriol at 80 ng/kg three times a week. Once a week, serum was collected via retro orbital bleeding for analysis of serum P and creatinine utilizing an ACE ALERA blood chemistry analyzer. […] Unless otherwise indicated, the data shown is from the serum collected at 2 weeks after initiation of the treatment regimen. In addition, for study #3, during the third week of the study, the animals were placed in metabolic cages for two days, and urine collected for the final 24 hours.
# [5] = oral 30 mg/kg, vehicle 5.0 ± 1.3
# [6] = Study 3, 5/6Nx rats, data at 3 weeks
structure (smiles),measurement,setting,value
"COCCNC(=O)CCSCc1cccc(C(=O)Nc2ccc(N3CCCCC3)cc2C(=O)N/N=C/c2ccc(Cl)c(C(F)(F)F)c2)c1 [Ex. 49, (E)-N-(2-(2-(4-chloro-3-(trifluoromethyl)benzylidene)hydrazinecarbonyl)-4-(piperidin-1-yl)phenyl)-3-((3-(2-methoxyethylamino)-3-oxopropylthio)methyl)benzamide]",% Decrease in serum [Pi],[1]; oral 30 mg/kg,24%
same,Serum increase [Pi] mg/dL from baseline low PI state,[1]; [5],3.8 ± 0.8 mg/dL
same,"% remaining, SGF",[2],21%
same,"% remaining, SIF",[2],89%
"O=C(NCCN1CCOCC1)c1cccc(C(=O)Nc2ccc(N3CCCCC3)cc2C(=O)N/N=C/c2ccc(Cl)c(C(F)(F)F)c2)c1 [Ex. 53, (E)-N^1-(2-(2-(4-chloro-3-(trifluoromethyl)benzylidene)hydrazinecarbonyl)-4-(piperidin-1-yl)phenyl)-N3-(2-morpholinoethyl)isophthalamide]",% Decrease in serum [Pi],[1]; oral 10 mg/kg,62%
same,Serum increase [Pi] mg/dL from baseline low PI state,[1]; oral 10 mg/kg,1.9 ± 1.1 mg/dL
same,% Decrease in serum [Pi],[1]; oral 30 mg/kg,79%
same,Serum increase [Pi] mg/dL from baseline low PI state,[1]; [5],1.1 ± 0.8 mg/dL
same,"% remaining, SGF",[2],6%
same,"% remaining, SIF",[2],107%
"O=C(O)c1cccc(SCc2cccc(C(=O)Nc3ccc(N4CCCCC4)cc3-c3cc(C(=O)NCc4cccc(C(F)(F)F)c4)ccn3)c2)c1 [Example 8.1, 3-(3-(4-(piperidin-1-yl)-2-(4-(3-(trifluoromethyl)benzylcarbamoyl)pyridin-2-yl)phenylcarbamoyl)benzylthio)benzoic acid]",Competitive with respect to Pi?,NaPi2b,No
"CN(CCN1CCOCC1)C(=O)c1cccc(C(=O)Nc2ccc(N3CCCCC3)cc2-c2cc(C(=O)NCc3cccc(C(F)(F)F)c3)ccn2)c1 [Example 80, N1-Methyl-N1-(2-morpholinoethyl)-N3-(4-(piperidin-1-yl)-2-(4-((3-(trifluoromethyl)benzyl)carbamoyl)pyridin-2-yl)phenyl)isophthalamide]",% Inhibition of Serum P elevation,[3],20-30%
same,Competitive with respect to Pi?,NaPi2b,No
"CCN(CC)c1ccc(NC(=O)c2cccc(CSCCOCCOCCOCCOCCOCCOCCOCCOCCC(=O)O)c2)c(-c2cc(C(=O)NCc3cccc(C(F)(F)F)c3)ccn2)c1 [Example 166, 1-(3-(4-(diethylamino)-2-(4-(3-(trifluoromethyl)benzylcarbamoyl)pyridin-2-yl)phenylcarbamoyl)phenyl)-5,8,11,14,17,20,23,26-octaoxa-2-thianonacosan-29-oic acid]",Ser P (serum P),"[4]; Study 2, 5/6Nx rats, 0.9% P diet + calcitriol, 2 weeks",11 mg/dL
same,Ser CRE (serum creatinine),"[4]; Study 2, 5/6Nx rats, 2 weeks",1.2 mg/dL
same,FGF23 (serum FGF23 levels),"[4]; Study 2, 5/6Nx rats, 2 weeks",100000 pg/mL
same,Ser CRE (serum creatinine),[4]; [6],1.0^§ mg/dL
same,Ser P (serum P),[4]; [6],10^§ mg/dL
same,FGF23 (serum FGF23 levels),"[4]; Study 3, 5/6Nx rats, data at 4 weeks",1.2 × 10^5§§ pg/mL
"CCN(CC)c1ccc(NC(=O)c2cccc(CCCOCCOCCOCCOCCOCCOCCOCCOCCOC)c2)c(-c2cc(C(=O)N[C@H]3CCCc4ccccc43)ccn2)c1 [Example 261, (S)-2-(2-(3-(2,5,8,11,14,17,20,23,26-nonaoxanonacosan-29-yl)benzamido)-5-(diethylamino)phenyl)-N-(1,2,3,4-tetrahydronaphthalen-1-yl)isonicotinamide]",Ser P (serum P),"[4]; Study 1, 5/6Nx rats, 0.9% P diet + calcitriol, 2 weeks",9.7 mg/dL
same,Ser CRE (serum creatinine),"[4]; Study 1, 5/6Nx rats, 2 weeks",1.0 mg/dL
same,FGF23 (serum FGF23 levels),"[4]; Study 1, 5/6Nx rats, 2 weeks",">15,000 pg/mL"
